Here are results for 11 compounds from patent US11560559B2, “Inducing production of full-length progranulin (GRN) from nucleotides including mutations containing a premature stop codon (PTC)” (University of Kentucky Research Foundation, priority 2018, dated 2023).

Assay [1] relates to R493X progranulin. Put plainly: Read-through of progranulin R493X nonsense mutation in transfected N2A cells (FLAG Western blot). It is filed as cell-based, human. The settings on record: time course, 1000 μg/ml G418, 12 hours.
The subject of the next assay is R493X progranulin mRNA. As to the kind of experiment: Full-length progranulin R493X mRNA level in N2A cells (qPCR). Type of assay: cell-based, human. The settings on record: with G418 treatment, qPCR (FIG. 5). On the procedure: N2A cells were exposed to G418 treatment for 24 hours with indicated concentrations after transfection. Primers specific for full length PGRN mRNA were used for qPCR. All results were normalized to full length WT progranulin in non-treated cells. N.S.: no significance. **, p<0.01; ***, p<0.001.
Total RNA was extracted with Aurum total RNA mini kit (BioRad, Cat. 732-6820), and cDNA was generated with SuperScript III first-strand synthesis system for RT-PCR (Invitrogen, Cat. 18080-051). Quantitive PCR was performed using SYBR Green (ThermoScientific, Cat. 4309155). Beta-actin primers: forward 5′-AGAGCTATGAGCTGCCTGAC-3′ (SEQ ID NO: 1); reverse 5′-GGATGTCAACGTCACACTTC-3′(SEQ ID NO: 2). Primers used for full length progranulin mRNA (including flag encoding sequence) is: forward 5′-CGTGAAGGCTTGATCCTGCGAGA-3′ (SEQ ID NO: 3), reverse 5′-CTTATCGTCATCCTTGTAATC-3′ (SEQ ID NO: 4). Annealing temperature for both beta-actin and progranulin qPCR reaction were 60° C.
In addition to inducing read-through, it has been reported that aminoglycosides can also stabilize mRNAs, which could enhance the read-through effect (35, 36). Therefore, qPCR was used to determine the mRNA levels in the absence and presence of G418.
In general terms: In qPCR the cycle at which signal appears reflects the starting amount.

The subject of assay [2] is R493X progranulin. As to the kind of experiment: Read-through of progranulin R493X nonsense mutation in transfected N2A cells (FLAG Western blot). Type of assay: cell-based, human. The settings on record: for rescued R493X expression / read-through efficiency as % of wild-type progranulin (summary statement): N2A cell culture, conditions not restated; for read-through, FLAG band intensity as percentage of WT progranulin: dose response, maximal concentration 2000 μg/ml; for read-through, FLAG band intensity as percentage of WT progranulin / read-through of R493X progranulin (FLAG-positive bands in Western blot): 24 hours; for read-through of R493X progranulin (FLAG-positive bands in Western blot): N2A cells transfected with R493X progranulin, two concentrations of each compound. The text has this:
(§1) The WT progranulin plasmid with a C-terminal FLAG tag (pC-Flag-PGRN-WT) was purchased from Sino Biological Inc. (Cat. HG10826-CF). Three nonsense mutations, Q125X, R229X and R493X, were generated using Q5 site-directed mutagenesis kit (New England Biolabs Inc., Cat. E0554S) to introduce a single nucleotide substitution in the WT progranulin gene (FIG. 1A). The WT progranulin with an N-terminal HA tag (HA-PGRN) was also generated by subcloning using the p3xHA vector (58) and HindIII and BamHI sites.
(§2) N2A cells were maintained in DMEM (Sigma, D5796) supplemented with 10% fetal bovine serum, 100 unit/mL penicillin, and 100 μg/mL streptomycin. Transient transfection was performed using Lipofectamine 2000 (Invitrogen, Life Technologies, Grand Island, N.Y., USA). […] was used for each well of 6-well plate unless otherwise described. After 6 hours transfection, fresh medium containing aminoglycoside at indicated concentrations was added to cells. Cells were applied to following experiments after exposed to drugs at certain time points. All cells were kept in a humidified incubator at 37° C. under 5% CO2/95% air.
Eleven aminoglycosides were tested in this study: G418 (Sigma-Aldrich, Cat. 4727878001), gentamicin (Sigma-Aldrich, Cat. G1397), Kanamycin (Gold Biotechnology, Cat. K-120-25), Streptomycin (Sigma-Aldrich, Cat. S9137), Amikacin (Alta Aesar, Cat. J67496), Tobramycin (Alta Aesar, Cat. J62995), Apramycin (Sigma-Aldrich, Cat. A2024), Neomycin B (Sigma-Aldrich, Cat. N6386), Netilmicin (Alta Aesar, Cat. J66302), Paromomycin (Alta Aesar, Cat. J61274), Sisomicin (Sigma-Aldrich, Cat. S7796). PTC124 was purchased from Med Chem Express (Cat. 775304-57-9).
Cells were lysed in RIPA buffer (Millipore Sigma, Cat. 20-188), centrifuged at 1000 g for 10 mins to remove debris, and then subjected to SDS electrophoresis. After electrophoresis, gels were proceeded for transferring onto nitrocellulose membranes. The membranes were then blocked with 5% milk in TBST (100 mM TRIS-HCl, pH7.5, 0.9% NaCl, 0.1% Tween-20) and incubated with indicated primary antibodies in the same solution. All immunoblotting images were acquired using a BioRad ChemiDoc MP system.
(§3) WT progranulin and three plasmids each with a single nonsense mutation (Q125X, Y229X, or R493X) and a C-terminal Flag tag (FIG. 1A) were constructed. A full-length protein must be generated for the FLAG to be detected, thus a truncated progranulin will not be detected by FLAG Western blotting. If read-through of the progranulin PTC occurs, then progranulin will be detectable by FLAG Western blotting.
R493X, which is the most common nonsense mutation in progranulin-mediated familial FTD (8, 31), was chosen to test whether aminoglycosides could induce read-through. N2A cells were transfected with the indicated plasmid, allowed to recover for 6 hours, and fresh media containing the aminoglycoside at the indicated concentrations was added to the cells for 24 hours. Cells were lysed and analyzed by Western blotting to determine the amount of progranulin protein. […] No signal was detected in lysate from cells transfected with R493X in the absence of any compounds, serving as a negative control. The FLAG-tagged WT progranulin was included as a positive control to define the expected progranulin-FLAG amount. […] It is noted that G418 induced a stronger effect than gentamicin.
A series of G418 and gentamicin concentrations were tested to examine the dose response of the read-through effect. N2A cells were transfected with the R493X progranulin plasmid, allowed to recover for 6 hours, fresh media containing either G418 or gentamicin at 100, 500, 1000 or 2000 μg/ml was added to cells for 24 hours. Cells were then lysed and lysates analyzed by Western blotting. The read-through was dose-dependent with the highest progranulin-FLAG signal corresponding to the highest concentration of compound (FIG. 2A). […]

The test system of the next assay is Q125X progranulin. Put plainly: Read-through of progranulin Q125X nonsense mutation in transfected N2A cells (FLAG Western blot). The following applies: 24 hours. It is filed as cell-based, human.
Excerpt: as §1
(§4) N2A cells were maintained in DMEM (Sigma, D5796) supplemented with 10% fetal bovine serum, 100 unit/mL penicillin, and 100 μg/mL streptomycin. […]
as §3
(§5) Whether G418 or gentamicin could induce read-through of two additional progranulin nonsense mutations (Q125X or Y229X) and a FUS nonsense mutation R495X that has been identified in juvenile patients of the related neurodegenerative disease ALS was also tested.
Background: In western blotting, separated proteins are transferred to a membrane and probed.

In a further assay the test system is LAMB3 PTC. The following applies: reported (ref. 27); cited from earlier work.
The next assay has as its system R495X FUS. As to the kind of experiment: Read-through of FUS R495X nonsense mutation in transfected N2A cells (FLAG Western blot). Type of assay: cell-based. The following applies: three concentrations, 24 hours. On the procedure:
Examination of G418 on the R495X mutation of FUS responsible for familial ALS. WT or R495X FUS was tagged with FLAG at the N-terminus. N2A cells were transfected with WT or R495X FUS, allowed to recover, and treated with three concentrations of G418 for 24 hours. Cells were harvested and cell lysates were subjected to SDS-PAGE and Western analysis using anti-FLAG (top) and anti-actin (lower) antibodies. The slightly higher band is WT FUS and the lower band is R495X truncated FUS.
as §2, with “air. […]” for “air.”
as §5

A further assay has as its system Y229X progranulin. Put plainly: Read-through of progranulin Y229X nonsense mutation in transfected N2A cells (FLAG Western blot). It is filed as cell-based, human. The following applies: 24 hours.
Excerpt: as §1, §4, §3, §5

Values joined by “and” are separate entries in the source; they are usually repeats but may differ in a detail not shown here. Identical values can stand only once. “Also recorded” adds a separate entry of the source.

Consider `CN[C@@H]1[C@@H](O)[C@@H](O[C@@H]2[C@@H](O)[C@H](O[C@H]3O[C@H]([C@@H](C)O)[C@@H](O)[C@H](O)[C@H]3N)[C@@H](N)C[C@H]2N)OC[C@]1(C)O` [G418], for which, in the assay on R493X progranulin [1], the “read-through as % of the WT control” value is reported as “≈ 5%”. In addition, the “mRNA level of R493X as % of WT progranulin” value with R493X progranulin mRNA was around 60%. In addition, in the assay with R493X progranulin [2], the “rescued R493X expression / read-through efficiency as % of wild-type progranulin (summary statement)” value is on record as around 50%; the “read-through, FLAG band intensity as percentage of WT progranulin” value is 33.8% and > 30%.

`O=C(O)c1cccc(-c2noc(-c3ccccc3F)n2)c1` [PTC124]: the “read-through of R493X progranulin (FLAG-positive bands in Western blot)” value (shortened to “read-through of R493X progranulin”) in the assay on R493X progranulin [2] is on record as “did not have any detectable read-through effect”.

`NCC[C@H](O)C(=O)N[C@@H]1C[C@H](N)[C@@H](O[C@H]2O[C@H](CN)[C@@H](O)[C@H](O)[C@H]2O)[C@H](O)[C@H]1O[C@H]1O[C@H](CO)[C@@H](O)[C@H](N)[C@H]1O` [amikacin]: in the assay with R493X progranulin [2], the “read-through of R493X progranulin” value is on record as “did not have any detectable read-through effect”.

Regarding `CN[C@@H]1[C@@H](O[C@H]2O[C@H](CO)[C@@H](N)[C@H](O)[C@H]2O)OC2C[C@@H](N)[C@@H](O[C@H]3[C@H](O)[C@@H](O)[C@H](N)C[C@@H]3N)OC2[C@@H]1O` (some centres unmarked) [apramycin], the “read-through of R493X progranulin” value in the assay with R493X progranulin [2] was “did not have any detectable read-through effect”.

Consider `NC[C@@H]1O[C@H](O[C@H]2[C@@H](O)[C@H](O[C@@H]3[C@@H](O)[C@H](N)C[C@H](N)[C@H]3O[C@H]3O[C@H](CN)[C@@H](O)[C@H](O)[C@H]3N)O[C@@H]2CO)[C@H](N)[C@@H](O)[C@@H]1O` [neomycin B], for which, in the assay on R493X progranulin [2], the “read-through of R493X progranulin” value is “did not have any detectable read-through effect”.

For `CCN[C@@H]1C[C@H](N)[C@@H](O[C@H]2OC(CN)=CC[C@H]2N)[C@H](O)[C@H]1O[C@H]1OC[C@](C)(O)[C@H](NC)[C@H]1O` [netilmicin], the “read-through of R493X progranulin” value with R493X progranulin [2] is on record as “did not have any detectable read-through effect”.

Regarding `NC[C@@H]1O[C@H](O[C@H]2[C@@H](O)[C@H](O[C@@H]3[C@@H](O)[C@H](N)C[C@H](N)[C@H]3O[C@H]3O[C@H](CO)[C@@H](O)[C@H](O)[C@H]3N)O[C@@H]2CO)[C@H](N)[C@@H](O)[C@@H]1O` [paromomycin], the “read-through of R493X progranulin” value in the assay on R493X progranulin [2] is “did not have any detectable read-through effect”.

Regarding `CN[C@@H]1[C@@H](O)[C@@H](O[C@@H]2[C@@H](O)[C@H](O[C@H]3OC(CN)=CC[C@H]3N)[C@@H](N)C[C@H]2N)OC[C@]1(C)O` [sisomicin], the “read-through of R493X progranulin” value with R493X progranulin [2] is “did not have any detectable read-through effect”.

For `[H]/N=C(/N)N[C@H]1[C@H](O)[C@@H](O)[C@H](O[C@@H]2O[C@@H](C)[C@](O)(C=O)[C@H]2O[C@@H]2O[C@@H](CO)[C@H](O)[C@@H](O)[C@@H]2NC)[C@@H](N/C(N)=N\[H])[C@@H]1O` [streptomycin], the “read-through of R493X progranulin” value with R493X progranulin [2] is recorded as “did not have any detectable read-through effect”.

In the case of `NC[C@H]1O[C@H](O[C@H]2[C@H](O)[C@@H](O[C@H]3O[C@H](CO)[C@@H](O)[C@H](N)[C@H]3O)[C@H](N)C[C@@H]2N)[C@H](N)C[C@@H]1O` [tobramycin], in the assay on R493X progranulin [2], the “read-through of R493X progranulin” value was “did not have any detectable read-through effect”.

Turning to gentamicin, the “read-through of Q125X progranulin (full-length protein by FLAG antibody)” value was “did not induce read-through” in the assay on Q125X progranulin and “no readthrough effect” with Q125X progranulin (listed as Gentamicin). Moreover, in the assay on LAMB3 PTC, the “read-through of the LAMB3 PTC” value is 30-50%. Further, the figures for the “read-through of FUS R495X (full-length protein)” value with R495X FUS and with R495X FUS (listed as Gentamicin) were “did not induce read-through” and “did not induce readthrough”, respectively. Also, the results for the “read-through of Y229X progranulin (full-length protein by FLAG antibody)” value with Y229X progranulin and with Y229X progranulin (listed as Gentamicin) were “did not induce read-through” and “no readthrough effect”, respectively. In addition, the “rescued R493X expression / read-through efficiency as % of wild-type progranulin (summary statement)” value in the assay with R493X progranulin [2] was “less than 10%”. In the assay on R493X progranulin [2], the “read-through of R493X progranulin” value is given as “induced FLAG bands; also recorded: induced read-through”. For the same compound, the “read-through, FLAG band intensity as percentage of WT progranulin” value in the assay with R493X progranulin [2] is listed as 8.6%.
